Like-named read-outs stand apart in the source and are kept apart here. One block for each molecule: values may come before it. Square brackets hold non-standard residues; d marks the D form. Ends that are not written are not given here. Peptide text beside a SMILES is read from it. Cit = NC(=O)NCCC[C@H](N)C(=O)O
Tests used:
HLA-DRB1*01:01 = target: T1, HLA-DRB1*01:01 (Homo sapiens, UniProt P01903+P01911, A100R/D57E/F55L/F60I/F76Y/I96L/L162R/M171V/P40L/Q125E/R42F/V115G/Y59C); assay: HLA class II peptide binding, inhibition of radiolabeled peptide binding to purified MHC
T1 construct: EBV transformed homozygous cell lines were used as sources of MHC molecules; endogenous in cells; host or cells: EBV transformed homozygous cell lines

HLA-DRB1*04:01 = target: T2, HLA-DRB1*04:01 (Homo sapiens, UniProt P01903+P01911, A100K/A169T/F76Y/I96L/K127E/L162R/M171V/N62H/P40V/Q125Y/R42H/S133A/S149N/S66Y/V115G/V209L/W38E); assay: as above
T2 construct: EBV transformed homozygous cell lines were used as sources of MHC molecules; endogenous in cells; host or cells: EBV transformed homozygous cell lines

[1] = wild-type (unmodified Arg) 15-mer peptide, purified HLA-DRB1*01:01, read-out: DRB1*01:01 binding capacity, WT peptide (IC50 nM)
[2] = wild-type (unmodified Arg) 15-mer peptide, purified HLA-DRB1*04:01, read-out: DRB1*04:01 binding capacity, WT peptide (IC50 nM)
[3] = read-out: DRB1*01:01 binding capacity, WT peptide (IC50 nM)
[4] = read-out: DRB1*04:01 binding capacity, WT peptide (IC50 nM)
[5] = citrullinated 15-mer peptide (X = citrulline), purified HLA-DRB1*01:01, read-out: DRB1*01:01 binding capacity, Cit peptide (IC50 nM)
[6] = ratio of WT IC50 to Cit IC50, >1 = citrullination increases binding
[7] = citrullinated 15-mer peptide (X = citrulline), purified HLA-DRB1*04:01, read-out: DRB1*04:01 binding capacity, Cit peptide (IC50 nM)

IC50 (HLA-DRB1*01:01; [1]): 7110 nM
IC50 (HLA-DRB1*04:01; [2]): 4550 nM
Molecule: CC[C@H](C)[C@H](NC(=O)[C@H](CCC(=O)O)NC(=O)[C@H](CC(=O)O)NC(=O)[C@@H](N)CCC(N)=O)C(=O)N[C@@H](CCC(N)=O)C(=O)N[C@@H](CC(N)=O)C(=O)N[C@@H](CCSC)C(=O)N[C@@H](CCCCN)C(=O)N[C@@H](CCC(=O)O)C(=O)N[C@@H](CCC(=O)O)C(=O)N[C@@H](CCSC)C(=O)N[C@@H](C)C(=O)N[C@@H](CCCNC(=N)N)C(=O)N[C@@H](Cc1c[nH]cn1)C(=O)N[C@@H](CC(C)C)C(=O)O [Vimentin 366 WT]

IC50 (HLA-DRB1*01:01; [3]): 261 nM
IC50 (HLA-DRB1*04:01; [4]): 4620 nM
Molecule: RSSVPGVRLLQDSVD [Vimentin 71 WT]

IC50 (HLA-DRB1*01:01; [5]): > 40000 nM
DRB1*01:01 binding capacity, WT/cit ratio (HLA-DRB1*01:01; [6]): 1.0
IC50 (HLA-DRB1*04:01; [7]): > 40000 nM
DRB1*04:01 binding capacity, WT/cit ratio (HLA-DRB1*04:01; [6]): 1.0
Molecule: CC(C)C[C@H](NC(=O)CNC(=O)[C@H](CCC(N)=O)NC(=O)[C@@H]1CCCN1C(=O)CNC(=O)[C@@H]1CCCN1C(=O)[C@@H]1CCCN1C(=O)CNC(=O)[C@H](CCC(=O)O)NC(=O)[C@H](C)NC(=O)CN)C(=O)N[C@@H](C)C(=O)NCC(=O)N[C@@H](CCC(N)=O)C(=O)N[C@@H](CCCNC(N)=O)C(=O)O [GAEGPPGPQGLAGQX] (H-GAEGPPGPQGLAGQ[Cit]-OH; N-terminus and C-terminus assumed)

IC50 (HLA-DRB1*01:01; [5]): 96 nM
IC50 (HLA-DRB1*04:01; [7]): > 40000 nM
Molecule: CC(C)C[C@H](NC(=O)CNC(=O)[C@H](CCCNC(N)=O)NC(=O)[C@@H](N)CCC(=O)O)C(=O)N[C@@H](CCCCN)C(=O)NCC(=O)N[C@@H](Cc1c[nH]cn1)C(=O)N[C@@H](CCCNC(=N)N)C(=O)NCC(=O)N[C@@H](Cc1ccccc1)C(=O)N[C@H](C(=O)NCC(=O)N[C@@H](CC(C)C)C(=O)N[C@@H](CCC(N)=O)C(=O)NCC(=O)O)[C@@H](C)O [EXGLKGHRGFTGLQG] (H-E[Cit]GLKGHRGFTGLQG-OH)

IC50 (HLA-DRB1*01:01; [5]): 22600 nM
IC50 (HLA-DRB1*04:01; [7]): > 40000 nM
Molecule: CC(C)C[C@H](NC(=O)[C@H](C)NC(=O)[C@H](CC(=O)O)NC(=O)[C@@H](N)CC(N)=O)C(=O)N[C@@H](CCCNC(N)=O)C(=O)N[C@@H](CCC(N)=O)C(=O)N[C@@H](C)C(=O)N[C@@H](CCCCN)C(=O)N[C@@H](CCC(N)=O)C(=O)N[C@@H](CCC(=O)O)C(=O)N[C@@H](CO)C(=O)N[C@H](C(=O)N[C@@H](CCC(=O)O)C(=O)N[C@@H](Cc1ccc(O)cc1)C(=O)N[C@@H](CCCNC(=N)N)C(=O)O)[C@@H](C)O [NDALXQAKQESTEYR] (H-NDAL[Cit]QAKQESTEYR-OH)

IC50 (HLA-DRB1*01:01; [1]): 15400 nM
IC50 (HLA-DRB1*04:01; [2]): > 40000 nM
Molecule: NDALRQAKQESTEYR [Vimentin 306 WT]

IC50 (HLA-DRB1*01:01; [5]): 21000 nM
IC50 (HLA-DRB1*04:01; [7]): > 40000 nM
Molecule: CC(C)C[C@H](NC(=O)CNC(=O)[C@H](CCCNC(N)=O)NC(=O)[C@@H]1CCCN1C(=O)CNC(=O)[C@@H](N)CCC(N)=O)C(=O)N1CCC[C@H]1C(=O)NCC(=O)N[C@H](C(=O)N1CCC[C@H]1C(=O)NCC(=O)N[C@H](C(=O)N[C@@H](CC(=O)O)C(=O)NCC(=O)N1CCC[C@H]1C(=O)O)[C@@H](C)O)[C@@H](C)O [QGPXGLPGTPGTDGP] (H-QGP[Cit]GLPGTPGTDGP-OH)

IC50 (HLA-DRB1*01:01; citrullinated peptide as listed (X at Cit position), read-out: DRB1*01:01 binding capacity Cit peptide (IC50 nM)): 1520 nM
IC50 (HLA-DRB1*04:01; citrullinated peptide as listed (X at Cit position), read-out: DRB1*04:01 binding capacity Cit peptide (IC50 nM)): 929 nM
Molecule: CC[C@H](C)[C@H](NC(=O)[C@H](CCC(=O)O)NC(=O)[C@@H](NC(=O)[C@H](CC(=O)O)NC(=O)[C@H](CC(N)=O)NC(=O)[C@@H](N)CO)C(C)C)C(=O)N[C@@H](CCCNC(N)=O)C(=O)N[C@@H](C)C(=O)N[C@@H](CCC(=O)O)C(=O)NCC(=O)N[C@@H](CC(N)=O)C(=O)N[C@@H](CO)C(=O)N[C@@H](CCCNC(=N)N)C(=O)N[C@@H](Cc1ccccc1)C(=O)N[C@H](C(=O)O)[C@@H](C)O [SNDVEIXAEGNSRFT] (H-SNDVEI[Cit]AEGNSRFT-OH)

IC50 (HLA-DRB1*01:01; [3]): 358 nM
IC50 (HLA-DRB1*04:01; [4]): 596 nM
Molecule: CC(C)C[C@H](NC(=O)[C@H](CO)NC(=O)[C@H](Cc1ccccc1)NC(=O)[C@H](CC(=O)O)NC(=O)[C@@H](NC(=O)[C@H](CO)NC(=O)[C@H](CC(=O)O)NC(=O)[C@H](CCC(N)=O)NC(=O)[C@H](CC(C)C)NC(=O)[C@H](CC(C)C)NC(=O)[C@H](CCCNC(=N)N)NC(=O)[C@@H](NC(=O)CN)C(C)C)C(C)C)C(=O)N[C@@H](C)C(=O)N[C@@H](CC(=O)O)C(=O)O [Vimentin 76 WT]
